Data published in ChEMBL document CHEMBL5518164, “Membrane-permeable tenofovir-di- and monophosphate analogues” (Eur J Med Chem, 2024).
Activity calls are given as the source filed them. No cut-off for these calls is given here.

Assays:
[1] = Lipophilicity of the compound assessed as retention time by RP-HPLC analysis; type: physicochemical
[2] = test system: Human immunodeficiency virus; experiment: Substrate activity at HIV reverse transcriptase assessed as n+1 band formation incubated for 30 mins in presence of primer/template mixture by primer extension assay based fluorescence analysis
[3] = test system: Human immunodeficiency virus; experiment: Substrate activity at HIV reverse transcriptase assessed as n+1 band formation incubated for 30 mins in presence of primer/template mixture and dNTPs by primer extension assay based fluorescence analysis
[4] = test system: Human immunodeficiency virus; experiment: Substrate activity at HIV reverse transcriptase assessed as full elongation of primer by measuring n+5 band formation incubated for 30 mins in presence of primer/template mixture and dNTPs by primer extension assay based fluorescence analysis
[5] = test system: Human immunodeficiency virus; experiment: Inhibition of HIV reverse transcriptase assessed as inhibition of elongation of primer at 25000 uM incubated for 30 mins in presence of primer/template mixture and dNTPs by primer extension assay based fluorescence analysis
[6] = test system: Human immunodeficiency virus; experiment: Inhibition of HIV reverse transcriptase assessed as inhibition of elongation of primer at 25000 uM incubated for 30 mins in presence of primer/template mixture and 250 uM dNTPs by primer extension assay based fluorescence analysis
[7] = molecular target: T1, DNA polymerase subunit gamma-1 (Homo sapiens) (UniProt P54098); experiment: Substrate activity at human DNA polymerase gamma assessed as elongation of primer at 250 uM incubated for 120 mins in presence of primer/template mixture by primer extension assay based fluorescence analysis
T1 sequence (whole entry): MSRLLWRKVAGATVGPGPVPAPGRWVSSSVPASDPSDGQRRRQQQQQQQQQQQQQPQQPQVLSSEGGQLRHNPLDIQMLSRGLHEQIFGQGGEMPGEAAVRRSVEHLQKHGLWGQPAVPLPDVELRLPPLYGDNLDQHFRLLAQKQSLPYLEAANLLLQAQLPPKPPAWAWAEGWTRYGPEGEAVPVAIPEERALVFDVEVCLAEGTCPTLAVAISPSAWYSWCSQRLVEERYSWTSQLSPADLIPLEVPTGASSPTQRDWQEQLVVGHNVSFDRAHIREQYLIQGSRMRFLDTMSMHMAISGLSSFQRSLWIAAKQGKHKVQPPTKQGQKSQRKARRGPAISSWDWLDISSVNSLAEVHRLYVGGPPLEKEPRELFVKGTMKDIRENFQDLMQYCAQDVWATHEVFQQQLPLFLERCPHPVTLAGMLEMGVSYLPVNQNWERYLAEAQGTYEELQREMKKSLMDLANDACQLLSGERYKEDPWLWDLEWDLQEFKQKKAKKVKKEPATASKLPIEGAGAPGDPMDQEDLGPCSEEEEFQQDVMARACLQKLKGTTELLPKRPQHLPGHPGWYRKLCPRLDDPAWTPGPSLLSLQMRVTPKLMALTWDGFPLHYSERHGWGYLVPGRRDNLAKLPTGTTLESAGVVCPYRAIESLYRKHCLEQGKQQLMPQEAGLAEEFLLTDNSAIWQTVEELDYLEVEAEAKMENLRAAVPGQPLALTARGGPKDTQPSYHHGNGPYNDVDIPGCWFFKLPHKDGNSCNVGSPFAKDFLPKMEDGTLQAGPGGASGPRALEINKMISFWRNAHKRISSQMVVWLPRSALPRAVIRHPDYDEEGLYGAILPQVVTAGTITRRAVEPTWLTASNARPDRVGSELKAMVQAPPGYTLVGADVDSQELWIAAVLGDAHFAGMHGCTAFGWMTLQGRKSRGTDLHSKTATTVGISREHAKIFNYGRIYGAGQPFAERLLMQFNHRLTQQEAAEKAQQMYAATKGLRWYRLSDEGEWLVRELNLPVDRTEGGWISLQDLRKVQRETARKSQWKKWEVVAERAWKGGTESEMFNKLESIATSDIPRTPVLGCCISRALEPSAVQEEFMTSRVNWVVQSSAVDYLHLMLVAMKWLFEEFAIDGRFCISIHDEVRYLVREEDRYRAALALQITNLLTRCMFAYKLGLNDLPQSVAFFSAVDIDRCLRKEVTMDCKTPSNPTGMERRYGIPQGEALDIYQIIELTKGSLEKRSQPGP

[8] = molecular target: T1, DNA polymerase subunit gamma-1 (Homo sapiens); experiment: Substrate activity at human DNA polymerase gamma assessed as elongation of primer at 250 uM incubated for 120 mins in presence of primer/template mixture and dNTPs by primer extension assay based fluorescence analysis
[9] = test system: Human immunodeficiency virus 1; experiment: Antiviral activity against HIV-1 HE infected in wild type human CEM/0 cells assessed as inhibition of virus-induced giant cell formation incubated for 4 to 5 days by light microscopy; type: functional, organism-based; conditions: Human immunodeficiency virus 1, HE, CCRF-CEM
[10] = test system: Human immunodeficiency virus 2; experiment: Antiviral activity against HIV-2 ROD infected in wild type human CEM/0 cells assessed as inhibition of virus-induced giant cell formation incubated for 4 to 5 days by light microscopy; type: functional, organism-based; conditions: Human immunodeficiency virus 2, ROD, CCRF-CEM
[11] = test system: Human immunodeficiency virus 2; experiment: Antiviral activity against HIV-2 ROD infected in thymidine kinase deficient human CEM cells assessed as inhibition of virus-induced giant cell formation incubated for 4 to 5 days by light microscopy; type: functional, organism-based; conditions: Human immunodeficiency virus 2, ROD, CCRF-CEM
[12] = Cytotoxicity against human CEM cells assessed as inhibition of cell proliferation; type: toxicity, cell-based, CCRF-CEM
[13] = Selectivity index, ratio of CC50 for cytotoxicity against human CEM cells to EC50 for antiviral activity against HIV-2 ROD infected in thymidine kinase deficient human CEM cells; type: toxicity, cell-based; conditions: read-out: Ratio CC50/EC50
[14] = test system: Human immunodeficiency virus; experiment: Substrate activity at HIV reverse transcriptase assessed as n+1 band formation incubated for 30 mins in presence of primer/template mixture and 2.6 fold excess of dNTPs by primer extension assay based fluorescence analysis
[15] = Prodrug conversion of the compound in phosphate buffer saline assessed as (R)-9-(2-(phosphonomethoxy)propyl)adenine formation by measuring half life at pH 7.3 by RP18-HPLC analysis; type: ADME
[16] = Half life of the compound in human CEM/0 cell extracts by RP18-HPLC analysis; type: ADME, CCRF-CEM
[17] = Half life of the compound in phosphate buffer saline at pH 7.3 by RP18-HPLC analysis; type: ADME
[18] = Half life of the compound in heparin-stabilized human plasma by HPLC analysis; type: ADME, cell-free
[19] = Half life of the compound in citrate-containing human plasma by HPLC analysis; type: ADME, cell-free
[20] = Prodrug conversion of the compound in phosphate buffer saline assessed as (R)-9-(2-(phosphonomethoxy)propyl)adenine formation by measuring half life in presence of pig liver esterase at pH 7.3 by RP18-HPLC analysis; type: ADME, Sus scrofa
[21] = Half life of the compound in phosphate buffer saline in presence of pig liver esterase at pH 7.3 by RP18-HPLC analysis; type: ADME, Sus scrofa

Structure (SMILES): CCCCCCCCCCCOP(=O)(O)OP(=O)(O)OP(=O)(O)CO[C@H](C)Cn1cnc2c(N)ncnc21
- Retention_time [1]: 12.5 min
- Activity [2]: Active
- Activity [3]: inactive
- Activity [4]: Active
- inhibition [5]: Active
- inhibition [6]: Active
- Activity [7]: inactive
- Activity [8]: Active
- EC50 [9]: 5270 nM
- EC50 [10]: 5550 nM
- EC50 [11]: 4620 nM
- CC50 [12]: > 100000 nM
- selectivity ratio [13]: > 21
- Activity [14]: Active

Structure (SMILES): CCCCCCCCCCCCCCCCCCOP(=O)(OCc1ccc(OC(=O)CC)cc1)OP(=O)(O)OP(=O)(O)CO[C@H](C)Cn1cnc2c(N)ncnc21 (stereo partly drawn)
- t1/2 [15]: 72 h
- half-life [16]: 2.6 h
- Retention_time [1]: 16.8 min
- EC50 [9]: 390 nM
- EC50 [10]: 120 nM
- EC50 [11]: 67 nM
- CC50 [12]: 51100 nM
- selectivity ratio [13]: 762

Structure (SMILES): CCCCCCCCCCCCCCCCCCOP(=O)(OCc1ccc(OC(=O)CCCCCC)cc1)OP(=O)(O)OP(=O)(O)CO[C@H](C)Cn1cnc2c(N)ncnc21 (stereo partly drawn)
- t1/2 [15]: 111 h
- half-life [16]: 1.9 h
- Retention_time [1]: 18.1 min
- EC50 [9]: 6960 nM
- EC50 [10]: 10300 nM
- EC50 [11]: 390 nM
- CC50 [12]: > 100000 nM
- selectivity ratio [13]: > 256

Structure (SMILES): Nc1ncnc2c1ncn2[C@H]1C[C@H](O)[C@@H](COP(=O)(O)OP(=O)(O)OP(=O)(O)O)O1
- Activity [3]: Active

Structure (SMILES): CC(C)OC(=O)OCOP(=O)(CO[C@H](C)Cn1cnc2c(N)ncnc21)OCOC(=O)OC(C)C.O=C(O)/C=C/C(=O)O [TENOFOVIR DISOPROXIL FUMARATE]
- half-life [17]: 27.8 h
- half-life [18]: 0.167 h
- half-life [19]: 0.167 h
- Retention_time [1]: 10.1 min
- EC50 [9]: 13 nM
- EC50 [10]: 3 nM
- EC50 [11]: 3 nM
- CC50 [12]: > 5000 nM
- selectivity ratio [13]: > 1430

Structure (SMILES): CCCCCCCCCCCCCCCCCCOP(=O)(OCc1ccc(OC(=O)CCCCCCCC)cc1)OP(=O)(O)OP(=O)(O)CO[C@H](C)Cn1cnc2c(N)ncnc21 (stereo partly drawn)
- t1/2 [15]: 24 h
- t1/2 [20]: 2.15 h
- half-life [16]: 3.5 h
- Retention_time [1]: 19.1 min
- EC50 [9]: 450 nM
- EC50 [10]: 770 nM
- EC50 [11]: 310 nM
- CC50 [12]: > 100000 nM
- selectivity ratio [13]: > 322

Structure (SMILES): CCCCCCCCCCCOP(=O)(OCc1ccc(OC(=O)CCCCCCCC)cc1)OP(=O)(O)OP(=O)(O)CO[C@H](C)Cn1cnc2c(N)ncnc21 (stereo partly drawn)
- EC50 [9]: 1230 nM
- EC50 [10]: 620 nM
- EC50 [11]: 540 nM
- CC50 [12]: > 100000 nM
- selectivity ratio [13]: > 185

Structure (SMILES): CCCCCCCCCCCCOP(=O)(OCCCCCCCCCCCC)OP(=O)(O)OP(=O)(O)CO[C@H](C)Cn1cnc2c(N)ncnc21
- half-life [16]: > 20 h
- half-life [17]: 220 h
- half-life [21]: > 100 h
- Retention_time [1]: 15.6 min
- EC50 [9]: 61 nM
- EC50 [10]: 35 nM
- EC50 [11]: 65 nM
- CC50 [12]: 44700 nM
- selectivity ratio [13]: 688
